# Assay results from patent US20240158446A1, “CYCLIC COMPOUND HAVING SELECTIVE INHIBITORY ACTION ON KRAS OVER HRAS AND NRAS” (CHUGAI SEIYAKU KABUSHIKI KAISHA, priority 2021, published 2024).
# Legend:
# [1] = biological target: GDP-bound NRAS wild-type protein (Homo sapiens, UniProt P01111); assay: Binding to NRAS by surface plasmon resonance (SPR), Single Cycle Kinetics; details: for NRAS/KRAS (ratio of KD value for NRAS to KD value for KRAS): GDP-bound NRAS wild-type protein vs GDP-bound KRAS wild-type protein; for NRAS/KRAS (ratio of KD value with respect to GDP-bound NRAS wild-type protein to KD value with respect to KRAS): SPR KD ratio NRAS/KRAS, class symbols
# [2] = biological target: GDP-bound HRAS wild-type protein (Homo sapiens, UniProt P01112); assay: Binding to HRAS by surface plasmon resonance (SPR), Single Cycle Kinetics; details: for HRAS/KRAS (ratio of KD value for HRAS to KD value for KRAS): GDP-bound HRAS wild-type protein vs GDP-bound KRAS wild-type protein; for HRAS/KRAS (ratio of KD value with respect to GDP-bound HRAS wild-type protein to KD value with respect to KRAS): SPR KD ratio HRAS/KRAS, class symbols
# Chain of GDP-bound HRAS wild-type protein (P01112 whole entry): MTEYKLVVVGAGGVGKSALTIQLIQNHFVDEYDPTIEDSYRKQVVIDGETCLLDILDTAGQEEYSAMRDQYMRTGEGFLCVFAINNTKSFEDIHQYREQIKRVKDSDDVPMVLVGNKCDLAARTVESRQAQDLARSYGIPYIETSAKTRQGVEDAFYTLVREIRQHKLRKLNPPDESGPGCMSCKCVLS
# Chain of GDP-bound NRAS wild-type protein (P01111 whole entry): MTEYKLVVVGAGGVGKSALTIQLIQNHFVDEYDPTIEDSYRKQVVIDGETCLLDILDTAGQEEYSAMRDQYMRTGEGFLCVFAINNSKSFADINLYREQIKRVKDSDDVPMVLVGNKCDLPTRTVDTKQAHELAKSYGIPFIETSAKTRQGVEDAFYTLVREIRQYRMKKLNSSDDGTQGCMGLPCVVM
structure (smiles),measurement,setting,value
CC[C@H](C)[C@@H]1NC(=O)[C@H](CC(C)C)N(C)C(=O)C[C@@H](C(=O)N(C)C)N(C)C(=O)[C@H](C2CCCC2)N(C)C(=O)C2(CC(C)(C)C2)NC(=O)[C@@H]2C[C@H](C)CN2C(=O)[C@H](CCc2ccc(C(F)(F)F)c(OC)c2)NC(=O)CN(C)C(=O)[C@H](Cc2ccc(C)cc2)N2CC/C=C\C[C@@H](C2=O)N(C)C(=O)CN(C)C1=O [PP1905],NRAS/KRAS (KD ratio),"[1]; ratio of KD for GDP-bound NRAS wild-type protein to KD for KRAS, SPR",A (a compound having 10 or more and less than 20 is denoted as A)
same,HRAS/KRAS (KD ratio),"[2]; ratio of KD for GDP-bound HRAS wild-type protein to KD for KRAS, SPR",A (a compound having 10 or more and less than 20 is denoted as A)
CCCOC[C@H]1C(=O)N[C@@H]([C@@H](C)CC)C(=O)N(C)CC(=O)N(C)[C@H]2C/C=C\CCN(C2=O)[C@@H](Cc2ccc(C)cc2)C(=O)N(C)CC(=O)N[C@@H](CCc2cc(F)c(C(F)(F)F)c(F)c2)C(=O)N2C[C@H](C)C[C@H]2C(=O)NC2(CCCC2)C(=O)N(C)[C@@H](C2CCCC2)C(=O)N(C)[C@H](C(=O)N(C)C)CC(=O)N1C [PP2225],NRAS/KRAS (ratio of KD value for NRAS to KD value for KRAS),[1]; SPR,A (a compound having 10 or more and less than 20 is denoted as A)
same,HRAS/KRAS (ratio of KD value for HRAS to KD value for KRAS),[2]; SPR,A (a compound having 10 or more and less than 20 is denoted as A)
CCC[C@H]1C(=O)N[C@@H]([C@@H](C)CC)C(=O)N(C2CC2)CC(=O)N(C)[C@H]2C/C=C\CCN(C2=O)[C@@H](Cc2ccc(C)cc2)C(=O)N(C)CC(=O)N[C@@H](CCc2ccc(C(F)(F)F)c(C3CC3)c2)C(=O)N2C[C@H](OCC)C[C@H]2C(=O)NC2(CC(C)(C)C2)C(=O)N(C)[C@@H](C2CCCC2)C(=O)N(C)[C@H](C(=O)N(C)C)CC(=O)N1C [PP2881],NRAS/KRAS (ratio of KD value with respect to GDP-bound NRAS wild-type protein to KD value with respect to KRAS),[1],A (a compound having 10 or more and less than 20 is denoted as A)
same,HRAS/KRAS (ratio of KD value with respect to GDP-bound HRAS wild-type protein to KD value with respect to KRAS),[2],A (a compound having 10 or more and less than 20 is denoted as A)
CCC(CC)[C@H]1C(=O)N(C)[C@H](C(=O)N(C)C)CC(=O)N(C)[C@@H](COC)C(=O)N[C@@H]([C@@H](C)CC)C(=O)N(C)CC(=O)N(C)[C@H]2C/C=C\CCN(C2=O)[C@@H](Cc2ccc(C)cc2)C(=O)N(C)CC(=O)N[C@@H](CCc2ccc(C(F)(F)F)c(Cl)c2)C(=O)N2CCCCC[C@H]2C(=O)NC2(CC(C)(C)C2)C(=O)N1C [PP2966],NRAS/KRAS (ratio of KD value with respect to GDP-bound NRAS wild-type protein to KD value with respect to KRAS),[1],A (a compound having 10 or more and less than 20 is denoted as A)
same,HRAS/KRAS (ratio of KD value with respect to GDP-bound HRAS wild-type protein to KD value with respect to KRAS),[2],A (a compound having 10 or more and less than 20 is denoted as A)
CCO[C@@H]1C[C@H]2C(=O)NC3(CCC3)C(=O)N(C)[C@@H](C3CCCC3)C(=O)N(C)[C@H](C)CC(=O)N(C)[C@@H](CC(C)C)C(=O)N[C@@H]([C@@H](C)CC)C(=O)N(C)CC(=O)N(C)[C@H]3C/C=C\CCN(C3=O)[C@@H](Cc3ccc(F)cc3)C(=O)N(C)CC(=O)N[C@@H](CCc3cc(F)c(C(F)(F)F)c(F)c3)C(=O)N2C1 [PP1494],NRAS/KRAS (ratio of KD value for NRAS to KD value for KRAS),"[1]; SPR, KD ratio class",B (a compound having 3 or more and less than 10 is denoted as B)
same,HRAS/KRAS (ratio of KD value for HRAS to KD value for KRAS),"[2]; SPR, KD ratio class",B (a compound having 3 or more and less than 10 is denoted as B)
CC[C@H](C)[C@@H]1NC(=O)[C@H](CC(C)C)N(C)C(=O)C[C@@H](C(=O)N2CCOCC2)N(C)C(=O)[C@H](C2CCCC2)N(C)C(=O)C2(CCC2)NC(=O)[C@@H]2C[C@@H](OCC(F)F)CN2C(=O)[C@H](CCc2cc(F)c(C(F)(F)F)c(F)c2)NC(=O)CN(C)C(=O)[C@H](Cc2ccc(C(F)(F)F)cc2)N2CCCCC[C@@H](C2=O)N(C)C(=O)CN(C)C1=O [PP1006],NRAS/KRAS (ratio of KD value for NRAS to KD value for KRAS),[1]; SPR,B (a compound having 3 or more and less than 10 is denoted as B)
same,HRAS/KRAS (ratio of KD value for HRAS to KD value for KRAS),[2]; SPR,B (a compound having 3 or more and less than 10 is denoted as B)
CCC[C@H]1C(=O)N[C@@H](C2CCCCC2)C(=O)N(C)CC(=O)N(C)[C@H]2C/C=C\CCN(C2=O)[C@@H](Cc2ccc(C)cc2)C(=O)N(C)CC(=O)N[C@@H](CCc2ccc(C(F)(F)F)c(Cl)c2)C(=O)N2C[C@H](OCC)C[C@H]2C(=O)NC2(CC(C)(C)C2)C(=O)N(C)[C@@H](CC(C)C)C(=O)N(C)[C@H](C(=O)N(C)C)CC(=O)N1C [PP3021],NRAS/KRAS (ratio of KD value for NRAS to KD value for KRAS),[1]; SPR,AA (a compound having 20 or more is denoted as AA)
same,HRAS/KRAS (ratio of KD value for HRAS to KD value for KRAS),[2]; SPR,A (a compound having 10 or more and less than 20 is denoted as A)
